We go through four compounds from patent US5369126A, “Nonatetraenoic acid derivative for use in treating acne” (Hoffmann-La Roche Inc., priority 1993, dated 1994).

Where two headings read alike, the source gives them in different places.

Data set [1] has as its system human sebaceous cells (sebocytes). Description: Inhibition of human sebocyte proliferation in vitro. It is filed as cell-based. As to conditions: read-out: ED50, inhibition of human sebocyte proliferation in vitro. On the procedure:
The cells are cultured in Iscove's medium containing 10% fetal calf serum and 4 μg/ml dexamethasone.
Cells are plated in medium without the test compound and then given test compound in fresh medium 24-48 hours after the initial plating. The cultures are given fresh medium containing the test compound, every 48 hours. On the day of harvesting, the cultures are rinsed with 0.03% EDTA in PBS to remove only the 3T3 fibroblasts, followed by incubation in 0.05% trypsin/0.03% EDTA. The cells are suspended, mixed vigorously to prepare a single cell suspension and counted in a hemocytometer.
All test compounds are handled in the following manner. Stock solutions are made up as 10^-2 M solutions in DMSO and stored at -20° C. in the dark. Solutions are never used after one month of storage. During experimental use, the solutions, which have been aliquoted, are brought to room temperature and used by diluting directly into complete medium to the appropriate concentration.

In data set [2] the test system is hamster ear sebaceous glands. In words: Hamster ear sebaceous gland assay, oral dosing. It counts as in vivo, Golden Syrian hamster (male). As to conditions: 4 weeks. Here is the method: Charles River Golden Syrian male hamsters, weighing between 150 to 160 grams, were housed for one month after receipt before dosing with compounds. […] Fresh solutions were made up weekly.
Hamsters were given 0.2 ml of drug solution via oral intubation. Animals were dosed daily for five days, rested for two days, and dosed again for five days until 20 doses were given. Hamsters were weighed at the beginning and end of the dosing regimen.
Hamsters were sacrificed by CO2 inhalation, and the ears removed for histological evaluation. One ear was fixed with 10% buffered formalin, processed for paraffin embedding, sectioned, and stained with hematoxylin and eosin (H&E). The area of sebaceous glands in cross-sections of hamster ears was examined by image analysis using a Leitz TAS Plus system.
Data is given as the average area of 30-40 sebaceous glands as percent of the control (solvent-treated) sections.

Data set [3] concerns rhino mouse utricles. In words: Rhino mouse utricle assay, topical dosing. It counts as in vivo. As to conditions: 3 weeks, vs solvent-treated control. On the procedure:
(§1) Male and female rhino mice were weighed prior to the start of an experiment. For topical studies, test compounds are dissolved in 100% acetone and 100 μl applied to the dorsa of the mice five times a week, once daily, for three weeks. For oral studies, test compounds were dissolved in 100% propylene glycol and 100 μl given by oral intubation 5 times a week, once daily, for three weeks. Final body weights were recorded at the time of sacrifice, done by CO2 inhalation. A flap of skin from the dorsa was cut out and processed by histological methods to produce a whole mount of the tissue. Utricle size was measured by image analysis using either the Leitz TAS Plus system or the Ultimage system on a modified MACINTOSH computer. Data is given as the % change from solvent-treated control tissue (Tables 3 and 4).

Data set [4] deals with rhino mouse utricles. Description: Rhino mouse utricle assay, oral dosing. It is filed as in vivo. As to conditions: 3 weeks, vs solvent-treated control. Here is the method:
as §1

Another data set deals with human sebaceous glands. Conditions: Landthaler et al., 1980; cited from earlier work.
The next data set deals with acne. Conditions: Farrell 1980; Hammerstein 1975; Lyons 1982; Weissman 1985; cited from earlier work.
The conditions of data set [5]: in vivo; cited from earlier work.
Data set [6] has as its system Syrian hamster ear sebaceous gland. As to conditions: Plewig et al., 1981; cited from earlier work.
Data set [7] in a line: Toxicity observed in the acne models of Examples 2-4. It counts as in vivo. On the procedure: The compound of the invention was tested as described in Examples 2-4, below, in several acne models.
Where [8] appears, read: Experiment 2, oral 0.5 mg/kg, vs solvent-treated control.
Setting [9] is: Experiment 2, oral 2.5 mg/kg, vs solvent-treated control.
[10] abbreviates: Experiment 2, oral 5 mg/kg, vs solvent-treated control.
[11] abbreviates: Experiment 2, oral 10 mg/kg, vs solvent-treated control.
The mark [12] stands for this setting: Experiment 1, topical 0.01 % solution in acetone.
The mark [13] stands for this setting: Experiment 1, topical 0.1 % solution in acetone.
The mark [14] stands for this setting: Experiment 2, topical 0.001 % solution in acetone.
[15] abbreviates: Experiment 2, topical 0.01 % solution in acetone.
The mark [16] stands for this setting: Experiment 2, topical 0.1 % solution in acetone.
[17] abbreviates: oral 0.25 mg/kg in propylene glycol.
Where [18] appears, read: oral 1.25 mg/kg in propylene glycol.
[19] abbreviates: oral 5 mg/kg in propylene glycol.

For the compound `CC1=C(/C=C/C(C)=C/C=C/C(C)=C\C(=O)O)C(C)(C)CCC1` [13-cis retinoic acid, reference compound], the IC50 in data set [1] amounted to 50 nM. Moreover, the “% Decrease, hamster ear sebaceous gland size” value in [2] (setting [8]) is listed as -13%; in data set [2] (setting [9]), -24%; in data set [2] (setting [10]), -34%; in data set [2] (setting [11]), -30%. Also, the “% Decrease, rhino mouse utricle size” value in the data set on rhino mouse utricles [3] (setting [12]) was -44%; with rhino mouse utricles [3] (setting [13]), -55%; with rhino mouse utricles [3] (setting [14]), -27%; in the data set on rhino mouse utricles [3] (setting [15]), -58%; in the data set with rhino mouse utricles [3] (setting [16]) it was -61%; in the data set with rhino mouse utricles [4] (setting [17]), -19%. In addition, the entries for the “% Decrease, rhino mouse utricle size” value with rhino mouse utricles [4] (setting [18]) and in the data set with rhino mouse utricles [4] (setting [19]) were -39% and -47%, respectively. Besides, the “reduction of the size of human sebaceous glands” value in the data set with human sebaceous glands is “up to 90%”. Also, the “effect on sebum production” value in the data set on acne is “reduce sebum production”. The “effect on severity of acne” value in the data set with acne is listed as “reduce the severity of acne”. The side effects result in [5] is given as “deleterious side effects such as hypervitaminosis A”. Besides, in data set [6], the “sensitivity of Syrian hamster ear sebaceous gland” value is “sensitive”.

As to `CCCCCCCCCOc1c(C)cc(C)cc1/C=C/C(C)=C/C=C/C(C)=C/C(=O)O` [Compound I, (all-E)-3,7-dimethyl-9-[3,5-dimethyl-2-(nonyloxy)-phenyl]-2,4,6,8-nonatetraenoic acid], the IC50 in data set [1] (amount necessary to inhibit proliferation by 50% vs diluent-treated control, tested at 10^-6 to 10^-9 M) was 10 nM. The “% Decrease, hamster ear sebaceous gland size” value in [2] (Experiment 1, oral 0.5 mg/kg, vs solvent-treated control) is on record as -19%; in [2] (Experiment 1, oral 1.5 mg/kg, vs solvent-treated control), -27%; in data set [2] (Experiment 1, oral 5 mg/kg, vs solvent-treated control), -33%; in data set [2] (setting [8]), -11%; in [2] (setting [9]) it was -18%; in data set [2] (setting [10]), -24%. The “% Decrease, hamster ear sebaceous gland size” value in [2] (setting [11]) was -33%; in data set [2] (Experiment 3a, vehicle = Propylene Glycol, oral 0.5 mg/kg), -19%; in [2] (Experiment 3a, vehicle = Propylene Glycol, oral 1.6 mg/kg) it was -27%; in data set [2] (Experiment 3a, vehicle = Propylene Glycol, oral 6 mg/kg) it was -33%; in data set [2] (Experiment 3b, vehicle = Labrafil, oral 0.6 mg/kg), -18%; in data set [2] (Experiment 3b, vehicle = Labrafil, oral 1.6 mg/kg), -26%. Besides, the “% Decrease, hamster ear sebaceous gland size” value is recorded as -26% in data set [2] (Experiment 3b, vehicle = Labrafil, oral 5 mg/kg); -13% in data set [2] (Experiment 3c, vehicle = Tween 80, oral 0.5 mg/kg); -13% in data set [2] (Experiment 3c, vehicle = Tween 80, oral 1.4 mg/kg); -22% in data set [2] (Experiment 3c, vehicle = Tween 80, oral 6 mg/kg). Also, the “% Decrease, rhino mouse utricle size” value in the data set with rhino mouse utricles [3] (setting [12]) was -10%; in the data set with rhino mouse utricles [3] (setting [13]), -42%; with rhino mouse utricles [3] (setting [14]), -1%; in the data set with rhino mouse utricles [3] (setting [15]), -11%; with rhino mouse utricles [3] (setting [16]) it was -30%; in the data set on rhino mouse utricles [4] (setting [17]) it was -23%. The “% Decrease, rhino mouse utricle size” value in the data set on rhino mouse utricles [4] (setting [18]) is -23%; with rhino mouse utricles [4] (setting [19]), -28%. Besides, in data set [7], the “toxicity at all doses tested” value is on record as “non-toxic at all doses tested”.

For the compound `CC(=O)O[C@]1(C(C)=O)CC[C@H]2[C@@H]3C=C(Cl)C4=CC(=O)[C@@H]5C[C@@H]5[C@]4(C)[C@H]3CC[C@@]21C` [cyproterone acetate], in the data set with acne, the “effect on sebum production” value is on record as “reduce sebum production” and the “effect on severity of acne” value is reported as “reduce the severity of acne”.

With `CC(=O)S[C@@H]1CC2=CC(=O)CC[C@]2(C)[C@H]2CC[C@@]3(C)[C@@H](CC[C@@]34CCC(=O)O4)[C@H]12` [spironolactone], in the data set on acne, the “effect on sebum production” value is on record as “reduce sebum production” and the “effect on severity of acne” value was “reduce the severity of acne”.
